The values below come from patent publication US20140128352A1, “COMPOUNDS AND METHODS FOR MODULATING MITOCHONDRIAL METABOLISM AND REACTIVE OXYGEN SPECIES PRODUCTION” (Buck Institute for Research on Aging, priority 2012, published 2014).

Assay [1] relates to mitochondrial membrane potential (ΔΨm). In words: Membrane potential (ΔΨm) counterscreen with TMRM. To be noted: malate, nigericin.
The test system of assay [2] is ubiquinone binding site of complex I (IQ). Description: High-throughput screen: ROS production from ubiquinone binding site of complex I (IQ), isolated skeletal muscle mitochondria. The format is biochemical, rat. To be noted: for % Reduction in ROS production (IQ): Table 2, 5 mM succinate, compounds 2.5 μM, percent change from DMSO, positive control −100%; for IQ: percent change in ROS from DMSO controls.

In assay [3] the target is T1, outer ubiquinone binding site of complex III (IIIQO) (Rattus norvegicus, UniProt P00159+P20788).
T1 construct: freshly isolated muscle mitochondria were assayed; from tissue; host or cells: rat skeletal muscle mitochondria (Wistar, Harlan Laboratories)
In words: High-throughput screen: ROS production from outer ubiquinone binding site of complex III (IIIQO). The format is biochemical. To be noted: for IIIQO: Table 8.

In assay [4] the target is T2, succinate dehydrogenase/complex II (SDH) (Rattus norvegicus, UniProt P21913+Q641Z9+Q6PCT8+Q920L2).
T2 construct: freshly isolated muscle mitochondria were assayed; from tissue; host or cells: rat skeletal muscle mitochondria (Wistar, Harlan Laboratories)
T2 sequence (Q920L2 35-656): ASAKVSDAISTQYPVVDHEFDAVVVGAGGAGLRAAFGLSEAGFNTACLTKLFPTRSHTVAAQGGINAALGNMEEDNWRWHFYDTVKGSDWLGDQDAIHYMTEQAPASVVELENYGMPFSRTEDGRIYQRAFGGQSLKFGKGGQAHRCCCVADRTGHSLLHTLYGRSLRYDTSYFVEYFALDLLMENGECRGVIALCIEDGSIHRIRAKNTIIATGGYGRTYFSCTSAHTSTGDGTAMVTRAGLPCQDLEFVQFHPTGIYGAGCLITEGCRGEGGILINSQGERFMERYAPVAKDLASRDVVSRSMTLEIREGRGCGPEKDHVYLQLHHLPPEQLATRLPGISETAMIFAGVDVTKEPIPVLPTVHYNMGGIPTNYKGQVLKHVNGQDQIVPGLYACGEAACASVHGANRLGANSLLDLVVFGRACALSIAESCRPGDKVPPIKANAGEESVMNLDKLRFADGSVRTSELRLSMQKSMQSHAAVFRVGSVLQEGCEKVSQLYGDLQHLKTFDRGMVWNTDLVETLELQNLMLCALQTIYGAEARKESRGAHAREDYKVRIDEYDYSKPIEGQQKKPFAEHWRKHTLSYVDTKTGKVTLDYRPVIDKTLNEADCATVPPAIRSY
T2 sequence (P21913 31-282): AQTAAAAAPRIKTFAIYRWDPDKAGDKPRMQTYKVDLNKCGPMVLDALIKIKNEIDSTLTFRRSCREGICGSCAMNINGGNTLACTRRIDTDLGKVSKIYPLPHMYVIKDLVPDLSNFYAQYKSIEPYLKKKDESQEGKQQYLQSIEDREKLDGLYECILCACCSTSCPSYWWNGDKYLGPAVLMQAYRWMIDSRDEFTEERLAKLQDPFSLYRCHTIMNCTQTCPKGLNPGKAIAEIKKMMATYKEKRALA
T2 sequence (Q641Z9 30-169 limits assumed): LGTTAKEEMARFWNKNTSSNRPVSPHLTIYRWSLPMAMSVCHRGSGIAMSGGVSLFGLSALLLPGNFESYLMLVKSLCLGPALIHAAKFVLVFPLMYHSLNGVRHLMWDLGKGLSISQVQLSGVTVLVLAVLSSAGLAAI
T2 sequence (Q6PCT8 57-159): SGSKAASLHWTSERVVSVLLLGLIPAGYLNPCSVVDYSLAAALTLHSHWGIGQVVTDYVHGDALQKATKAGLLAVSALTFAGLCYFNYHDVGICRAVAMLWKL
In words: High-throughput screen: ROS production from succinate dehydrogenase/complex II (SDH). It counts as biochemical. The following applies: percent change in ROS from DMSO controls; for inhibition at 2.5 µM: Table 7.
Procedure: (§1) Skeletal muscle mitochondria were isolated from 5-8 week old female Wistar rats (Harlan Laboratories). Minced muscle was homogenized in buffer containing bacterial protease Type VIII prior to differential centrifugation to separate mitochondria from other tissue components. Unless otherwise stated, freshly isolated muscle mitochondria were assayed in buffer containing 120 mM KCl, 5 mM HEPES, 1 mM EGTA, 0.3% (w/v) bovine serum albumin. Where indicated, CaCl2 was added to yield a final free concentration of 250 nM calcium at pH 7.0 at 37° C.
Just prior to use, plates were brought to room temperature and diluted 300-fold with standard buffer (13.3X=33.3 μM). To monitor the performance of each assay throughout screening and to provide intra-plate normalization reference points, DMSO negative controls and known mitochondrial inhibitor positive controls were included on each Master compound plate.
(§2) Total amounts of superoxide and H2O2 production were determined fluorometrically as H2O2, without distinguishing between them, in the presence of exogenous superoxide dismutase (25 units/mL final), horseradish peroxidase (1 unit/mL final), and Amplex UltraRed (25 μM final) as described (Affourtit, C. et al. (2012) Measurement of proton leak and electron leak in isolated mitochondria. Methods Mol. Biol. 810: 165-82). Just prior to use, a bulk 3.3X solution was made in standard buffer and distributed into a 2 mL deep well 96-well transfer plate.
To assess the effects of a compound on ROS production from succinate dehydrogenase/complex II (SDH), Start Solution containing 15 μM palmitoyl carnitine, 2.5 μM antimycin A and 2 μM myxothiazol was distributed into standard 96-well transfer plates. A Biomek FX workstation was programmed to dispense solutions into black 96-well assay plates. Solutions were dispensed to all assay plates in the following order: ROS Detection solution described in Example 3, Mitochondria solution described in Example 1 to a final concentration of 0.3 mg/ml, and Compound dilutions described in Example 2. Duplicate assay plates were made and each was initiated by the addition of 3.3X Start solution containing 15 μM palmitoyl carnitine, 2.5 μM antimycin A and 2 μM myxothiazol. Plates were incubated in the dark at room temperature for 30-40 minutes before acquiring endpoint fluorescence using a Victor 3V plate reader (Perkin Elmer) equipped with 550/590 nm excitation/emission filters.
The fluorescence values in each well were scaled as the percent change from the intra-plate DMSO controls with the appropriate inhibitor positive controls defined as −100%. Following initial scaling, intra-plate normalized values were subjected to Tukey's two-way median polish to remove row and column dependent positional effects (Malo et al., 2006).

Assay [5] concerns the target T3, glycerol-3-phosphate dehydrogenase (GPDH) (Rattus norvegicus, UniProt P35571).
T3 construct: The activity of GPDH in intact mitochondria (0.3 mg/mL) was measured; from tissue; host or cells: rat skeletal muscle mitochondria (Wistar, Harlan Laboratories)
T3 sequence (P35571 43-727): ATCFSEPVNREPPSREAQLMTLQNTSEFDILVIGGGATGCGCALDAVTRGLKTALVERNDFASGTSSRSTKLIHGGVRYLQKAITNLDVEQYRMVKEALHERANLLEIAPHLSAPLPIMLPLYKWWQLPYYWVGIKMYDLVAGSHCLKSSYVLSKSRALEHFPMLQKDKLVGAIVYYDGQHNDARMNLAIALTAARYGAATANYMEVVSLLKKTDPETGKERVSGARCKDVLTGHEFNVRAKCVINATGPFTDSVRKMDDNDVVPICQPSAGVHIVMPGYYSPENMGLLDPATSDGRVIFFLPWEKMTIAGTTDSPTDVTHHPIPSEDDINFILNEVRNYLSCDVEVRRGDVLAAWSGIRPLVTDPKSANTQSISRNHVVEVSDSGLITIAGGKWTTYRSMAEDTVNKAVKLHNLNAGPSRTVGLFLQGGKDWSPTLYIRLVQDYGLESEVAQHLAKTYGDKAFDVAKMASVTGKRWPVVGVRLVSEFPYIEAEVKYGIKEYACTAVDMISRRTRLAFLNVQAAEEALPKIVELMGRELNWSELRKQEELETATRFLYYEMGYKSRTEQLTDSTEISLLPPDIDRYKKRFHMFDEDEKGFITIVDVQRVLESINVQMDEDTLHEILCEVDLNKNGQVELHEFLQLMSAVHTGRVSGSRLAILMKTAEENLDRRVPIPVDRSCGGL
In words: High-throughput screen: ROS production from glycerol-3-phosphate dehydrogenase (GPDH). Set-up: inhibition: dose or concentration left out as unconfirmed. It counts as biochemical. To be noted: for inhibition: Table 7; for inhibition / GPDH: percent change in ROS from DMSO controls.
Procedure: as §1
Compounds (10 mM in DMSO) were randomly selected from a library of 24,000 compounds obtained from ChemBridge and curated by the lab of Robert Hughes at the Buck Institute. Master screening plates were prepared using a Biomek FX liquid handling workstation (Beckman) to transfer 1 μL of each compound into individual wells on 96-well storage plates (80 compounds per plate). Master plates were sealed with foil and stored at −80° C. Just prior to use, plates were brought to room temperature and diluted 300-fold with standard buffer (13.3X=33.3 μM). To monitor the performance of each assay throughout screening and to provide intra-plate normalization reference points, DMSO negative controls and known mitochondrial inhibitor positive controls were included on each Master compound plate.
as §2
To assess the effects of a compound on ROS production from glycerol-3-phosphate dehydrogenase (GPDH), Start Solution containing 25 mM glycerol phosphate, 4 μM rotenone, 2.5 μM antimycin A, 1 mM malonate, 2 μM myxothiazol was distributed into standard 96-well transfer plates. A Biomek FX workstation was programmed to dispense solutions into black 96-well assay plates. Solutions were dispensed to all assay plates in the following order: ROS Detection solution described in Example 3, Mitochondria solution described in Example 1 to a final concentration of 0.2 mg/ml, and Compound dilutions described in Example 2. Duplicate assay plates were made and each was initiated by the addition of 3.3X Start solution containing 25 mM glycerol phosphate, 4 μM rotenone, 2.5 μM antimycin A, 1 mM malonate, 2 μM myxothiazol. Plates were incubated in the dark at room temperature for 30-40 minutes before acquiring endpoint fluorescence using a Victor 3V plate reader (Perkin Elmer) equipped with 550/590 nm excitation/emission filters.
The fluorescence values in each well were scaled as the percent change from the intra-plate DMSO controls. […] Following initial scaling, intra-plate normalized values were subjected to Tukey's two-way median polish to remove row and column dependent positional effects (Malo et al., 2006).

In assay [6] the target is T4, flavin binding site of complex I (IF) (Rattus norvegicus, UniProt Q5XIH3).
T4 construct: freshly isolated muscle mitochondria were assayed; from tissue; host or cells: rat skeletal muscle mitochondria (Wistar, Harlan Laboratories)
T4 sequence (Q5XIH3 21-464 limits assumed, one chain of several): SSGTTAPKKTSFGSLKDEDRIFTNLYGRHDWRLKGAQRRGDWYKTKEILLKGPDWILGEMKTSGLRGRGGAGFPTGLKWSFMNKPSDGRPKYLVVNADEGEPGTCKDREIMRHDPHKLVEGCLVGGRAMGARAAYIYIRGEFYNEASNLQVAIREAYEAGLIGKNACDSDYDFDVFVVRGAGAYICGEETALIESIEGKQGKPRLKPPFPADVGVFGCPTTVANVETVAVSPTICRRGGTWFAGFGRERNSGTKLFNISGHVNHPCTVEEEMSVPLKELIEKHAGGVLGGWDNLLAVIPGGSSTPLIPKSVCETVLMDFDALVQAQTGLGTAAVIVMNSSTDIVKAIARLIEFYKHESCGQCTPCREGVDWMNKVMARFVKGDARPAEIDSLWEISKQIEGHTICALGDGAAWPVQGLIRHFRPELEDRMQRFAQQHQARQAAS
In words: High-throughput screen: ROS production from flavin binding site of complex I (IF). The format is biochemical. The following applies: for inhibition at 2.5 µM: Table 7, read-out: IF; for inhibition at 2.5 µM / IF: percent change in ROS from DMSO controls.
Procedure: as §1
Master screening plates were prepared using a Biomek FX liquid handling workstation (Beckman) to transfer 1 μL of each compound into individual wells on 96-well storage plates (80 compounds per plate). […] Just prior to use, plates were brought to room temperature and diluted 300-fold with standard buffer (13.3X=33.3 μM). To monitor the performance of each assay throughout screening and to provide intra-plate normalization reference points, DMSO negative controls and known mitochondrial inhibitor positive controls were included on each Master compound plate.
as §2
To assess the effects of a compound on ROS production from the flavin binding site of complex I (IF), Start Solution containing 5 mM glutamate, 5 mM malate and 4 μM rotenone was distributed into standard 96-well transfer plates. A Biomek FX workstation was programmed to dispense solutions into black 96-well assay plates. Solutions were dispensed to all assay plates in the following order: ROS Detection solution described in Example 3, Mitochondria solution described in Example 1 to a final concentration of 0.3 mg/ml, and Compound dilutions described in Example 2. Duplicate assay plates were made and each was initiated by the addition of 3.3X Start solution containing 5 mM glutamate, 5 mM malate and 4 μM rotenone. Plates were incubated in the dark at room temperature for 30-40 minutes before acquiring endpoint fluorescence using a Victor 3V plate reader (Perkin Elmer) equipped with 550/590 nm excitation/emission filters.
The fluorescence values in each well were scaled as the percent change from the intra-plate DMSO controls with the appropriate inhibitor positive controls defined as −100%. Following initial scaling, intra-plate normalized values were subjected to Tukey's two-way median polish to remove row and column dependent positional effects (Malo, N. et al. (2006) Statistical practice in high-throughput screening data analysis. Nat. Biotechnol. 24(2): 167-75).

[7] abbreviates: Table 7, percent change in ROS from DMSO controls, read-out: IIIQO.
Where [8] appears, read: percent change in ROS from DMSO controls.
Setting [9] is: Table 9, percent change in ROS from DMSO controls, read-out: IIIQo.
The mark [10] stands for this setting: Table 4, 5 mM succinate, 4 μM rotenone, 2.5 μM antimycin A, compounds 2.5 μM, percent change from DMSO, read-out: % Reduction in ROS production (IIIQO).

Molecules are shown by their SMILES. Where two headings read alike, the source gives them in different places.

With `CC(C)(C)NS(=O)(=O)c1ccc2c(c1)C(=O)c1ccccc1C2=O` [Compound 1], the ΔΨm is on record as −1.5 in assay [1] (Table 8, glutamate) and −1.5 in assay [1] (Table 9, glutamate). Moreover, the “% Reduction in ROS production (IQ)” value in assay [2] is given as −60.6%. Also, the IQ in assay [2] (Table 7), in assay [2] (Table 8) and in assay [2] (Table 9) was −60.6 in each case. The inhibition at 2.5 µM is -1% in assay [3] (setting [7]), -1% in assay [3] (setting [9]), 8.2% in assay [4] and -10% in assay [6]. Besides, the IIIQO in assay [3] (setting [8]) stood at 1.0. Besides, the SDH in assay [4] (Table 8) and in assay [4] (Table 9) was −8.2 each time. Further, the inhibition in assay [5] was -4.1%. Moreover, the GPDH in assay [5] (Table 8) and in assay [5] (Table 9) was 4.1 in each case. For the same compound, the IF in assay [6] (Table 8) and in assay [6] (Table 9) was 10.0 throughout.

Turning to `CCSC1=C(C#N)C2(CCCC2)C(C#N)C(=O)N1` (stereo not shown) [Compound 2], the ΔΨm in assay [1] (Table 8, glutamate) is −3.4; in assay [1] (Table 9, glutamate) it was −3.4. Moreover, the “% Reduction in ROS production (IQ)” value in assay [2] was −52.5%. The IQ in assay [2] (Table 7), in assay [2] (Table 8) and in assay [2] (Table 9) was −52.5 throughout. For the same compound, the inhibition at 2.5 µM is -1.9% in assay [3] (setting [7]), -1.9% in assay [3] (setting [9]), -2.6% in assay [4] and 7% in assay [6]. This compound displayed an IIIQO in assay [3] (setting [8]) of 1.9. In addition, the SDH in assay [4] (Table 8) and in assay [4] (Table 9) was 2.6 each time. The inhibition in assay [5] amounted to 0.1%. Also, the GPDH in assay [5] (Table 8) and in assay [5] (Table 9) was −0.1 in each case. Further, the IF in assay [6] (Table 8) and in assay [6] (Table 9) was −7.0 each time.

For `CC(C)(C)C1=NN(c2c(Cl)cc(Cl)cc2Cl)C(=O)C1` [Compound 3], the ΔΨm in assay [1] (Table 8, glutamate) is on record as 1.2; in assay [1] (Table 9, glutamate), 1.2. Also, the “% Reduction in ROS production (IQ)” value in assay [2] is listed as −52.4%. Also, the IQ in assay [2] (Table 7), in assay [2] (Table 8) and in assay [2] (Table 9) was −52.4 in each case. Besides, the inhibition at 2.5 µM was -1% in assay [3] (setting [7]), -1% in assay [3] (setting [9]), 6.8% in assay [4] and -0.5% in assay [6]. The IIIQO in assay [3] (setting [8]) is reported as 1.0. Further, the SDH in assay [4] (Table 8) and in assay [4] (Table 9) was −6.8 in each case. The inhibition in assay [5] turned out to be 0.1%. The GPDH in assay [5] (Table 8) and in assay [5] (Table 9) was −0.1 throughout. Also, the IF in assay [6] (Table 8) and in assay [6] (Table 9) was 0.5 in each case.

For `CCCCN(Cc1ccccc1)Cc1cc(Cl)cc(Cl)c1O` [Compound 38], the ΔΨm in assay [1] (Table 8, glutamate) is reported as 0.3; in assay [1] (Table 9, glutamate), 0.3. The IQ in assay [2] (Table 7), in assay [2] (Table 8) and in assay [2] (Table 9) was −3.9 in each case. Moreover, the inhibition at 2.5 µM in assay [3] (setting [10]) is 31.3%; in assay [3] (setting [7]), 31.3%; in assay [3] (setting [9]) it was 31.3%; in assay [6], 1.8%. This compound showed an IIIQO in assay [3] (setting [8]) of −31.3. Further, in assay [5], the inhibition is -3.7%. Also, the GPDH in assay [5] (Table 8) and in assay [5] (Table 9) was 3.7 each time. The IF in assay [6] (Table 8) and in assay [6] (Table 9) was −1.8 in each case.

Consider `Fc1ccc(N2CCN(CC(c3ccccc3)c3ccccc3)CC2)cc1` [Compound 39], for which the ΔΨm was determined as 0.5 in assay [1] (Table 8, glutamate) and 0.5 in assay [1] (Table 9, glutamate). The IQ in assay [2] (Table 7), in assay [2] (Table 8) and in assay [2] (Table 9) was 2.7 each time. The inhibition at 2.5 µM amounted to 26.8% in assay [3] (setting [10]), 26.8% in assay [3] (setting [7]), 26.8% in assay [3] (setting [9]) and 0.9% in assay [6]. Moreover, the IIIQO in assay [3] (setting [8]) is −26.8. In assay [5], the inhibition was determined as 4.7%. Besides, the GPDH in assay [5] (Table 8) and in assay [5] (Table 9) was −4.7 in each case. Further, the IF in assay [6] (Table 8) and in assay [6] (Table 9) was −0.9 each time.

As for `COC(=O)c1ccc(CN(CCc2ccccc2)Cc2ccccc2)cc1` [Compound 43], the ΔΨm in assay [1] (Table 8, glutamate) was found to be 0.6; in assay [1] (Table 9, glutamate), 0.6. Besides, the IQ in assay [2] (Table 7), in assay [2] (Table 8) and in assay [2] (Table 9) was −0.5 each time. The inhibition at 2.5 µM in assay [3] (setting [10]) is 23.2%; in assay [3] (setting [7]), 23.2%; in assay [3] (setting [9]), 23.2%; in assay [6], 4.4%. The compound also gave an IIIQO in assay [3] (setting [8]) of −23.2. Further, the inhibition in assay [5] was -3.4%. Further, the GPDH in assay [5] (Table 8) and in assay [5] (Table 9) was 3.4 in each case. Further, the IF in assay [6] (Table 8) and in assay [6] (Table 9) was −4.4 each time.

Take `CCCCN(Cc1ccccc1)Cc1cccc(Oc2ccc(Cl)cc2)c1` [Compound 44]: the ΔΨm in assay [1] (Table 8, glutamate) came out at 1.0; in assay [1] (Table 9, glutamate) it was 1.0. For the same compound, the IQ in assay [2] (Table 7), in assay [2] (Table 8) and in assay [2] (Table 9) was 0.4 each time. In addition, the inhibition at 2.5 µM in assay [3] (setting [10]) is 23.1%; in assay [3] (setting [7]), 23.1%; in assay [3] (setting [9]), 23.1%; in assay [6] it was -3.1%. Besides, the IIIQO in assay [3] (setting [8]) is on record as −23.1. For the same compound, in assay [5], the inhibition was determined as 3.4%. Besides, the GPDH in assay [5] (Table 8) and in assay [5] (Table 9) was −3.4 each time. Moreover, the IF in assay [6] (Table 8) and in assay [6] (Table 9) was 3.1 each time.

On to `C=C(C)CN(CC)Cc1cc([N+](=O)[O-])ccc1Cl` [Compound 45], for which the ΔΨm in assay [1] (Table 8, glutamate) is 0.3; in assay [1] (Table 9, glutamate) it was 0.3. Also, the IQ in assay [2] (Table 7), in assay [2] (Table 8) and in assay [2] (Table 9) was −0.2 each time. In addition, the inhibition at 2.5 µM in assay [3] (setting [10]) was 20.2%; in assay [3] (setting [7]), 20.2%; in assay [3] (setting [9]), 20.2%; in assay [6], -0.5%. Further, the IIIQO in assay [3] (setting [8]) is −20.2. In addition, the inhibition in assay [5] is -3.1%. Besides, the GPDH in assay [5] (Table 8) and in assay [5] (Table 9) was 3.1 in each case. Moreover, the IF in assay [6] (Table 8) and in assay [6] (Table 9) was 0.5 each time.

In the case of `CCN1CCN(C/C=C/c2ccc(N(C)C)cc2)CC1` [Compound 48], the ΔΨm in assay [1] (Table 8, glutamate) worked out at 0.0; in assay [1] (Table 9, glutamate), 0.0. In addition, the IQ in assay [2] (Table 7), in assay [2] (Table 8) and in assay [2] (Table 9) was −2.9 each time. Also, the inhibition at 2.5 µM in assay [3] (setting [7]) amounted to 5.7%; in assay [3] (setting [9]), 5.7%; in assay [5] (Table 6, 25 mM glycerol phosphate, rotenone, antimycin A, malonate, myxothiazol, compounds 2.5 μM, scaled to IQ positive controls, read-out: % Reduction in ROS Production (GPDH)), 13.4%; in assay [6], 6.5%. This compound also displayed an IIIQO in assay [3] (setting [8]) of −5.7. In assay [5], the inhibition worked out at 13.4%. Besides, the GPDH in assay [5] (Table 8) and in assay [5] (Table 9) was −13.4 each time. Besides, the IF in assay [6] (Table 8) and in assay [6] (Table 9) was −6.5 in each case.

In the case of `CCCCN(Cc1ccccc1)Cc1cc(OC)c(OC)cc1[N+](=O)[O-]` [Compound 79], the ΔΨm in assay [1] (Table 8, glutamate) was found to be 1. This compound came in with an IQ in assay [2] (Table 8) of 0. Further, in assay [3] (Table 4, 5 mM succinate, 4 μM rotenone, 2.5 μM antimycin A, compounds 2.5 μM, percent change from DMSO), the “% Reduction in ROS production (IIIQO)” value is −19%. For the same compound, the IIIQO in assay [3] (setting [8]) was −19. The same compound registered a GPDH in assay [5] (Table 8) of −1. Moreover, the “% Reduction in ROS production (IF)” value in assay [6] (Table 3, 5 mM glutamate, 5 mM malate, 4 μM rotenone, compounds 2.5 μM, percent change from DMSO, positive control −100%) was −17%. The IF in assay [6] (Table 8) is recorded as −17.
